According to ChEMBL document CHEMBL5376004, “Discovery and Development of Quinazolinones and Quinazolinediones for Ameliorating Nonalcoholic Fatty Liver Disease (NAFLD) by Modulating COP1-ATGL Axis” (J Med Chem, 2023):
≈ marks a conversion by molar mass, not a printed value. Calls of active or inactive are those of the source. The calls are words filed in the database; no cut-off is given here.

How the values were obtained:
COP1-AGTL (Homo sapiens) = COP1-AGTL (Homo sapiens) (UniProt Q96AD5+Q8NHY2); assay: Induction of COP1 to ATGL stabilization (unknown origin) expressed in HEK293-A cells assessed as reduction in ATGL ubiquitination incubated for 6 hrs by Western blotting analysis; type: cell-based
Sequence of COP1-AGTL (Homo sapiens) (Q8NHY2 whole entry, looked up): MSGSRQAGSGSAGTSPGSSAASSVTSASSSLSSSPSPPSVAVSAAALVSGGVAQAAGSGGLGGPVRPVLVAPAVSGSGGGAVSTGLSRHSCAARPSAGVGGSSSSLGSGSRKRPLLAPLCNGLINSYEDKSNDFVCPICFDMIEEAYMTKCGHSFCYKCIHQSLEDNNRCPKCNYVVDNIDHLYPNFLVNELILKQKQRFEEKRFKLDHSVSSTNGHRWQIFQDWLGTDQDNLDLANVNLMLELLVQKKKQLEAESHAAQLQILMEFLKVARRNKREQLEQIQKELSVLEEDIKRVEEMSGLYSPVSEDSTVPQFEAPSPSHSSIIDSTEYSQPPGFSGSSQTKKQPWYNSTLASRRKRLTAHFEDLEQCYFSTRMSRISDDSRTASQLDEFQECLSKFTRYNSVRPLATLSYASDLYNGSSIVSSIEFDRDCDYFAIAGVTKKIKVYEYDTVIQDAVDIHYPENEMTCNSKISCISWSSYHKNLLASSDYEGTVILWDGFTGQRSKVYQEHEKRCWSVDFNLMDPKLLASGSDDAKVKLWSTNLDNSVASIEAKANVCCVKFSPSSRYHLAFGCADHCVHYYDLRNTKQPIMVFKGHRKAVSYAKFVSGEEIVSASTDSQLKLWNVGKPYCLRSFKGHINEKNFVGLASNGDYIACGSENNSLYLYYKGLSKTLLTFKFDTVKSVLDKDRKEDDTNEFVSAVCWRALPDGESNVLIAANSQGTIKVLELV
Sequence of COP1-AGTL (Homo sapiens) (Q96AD5 whole entry, looked up): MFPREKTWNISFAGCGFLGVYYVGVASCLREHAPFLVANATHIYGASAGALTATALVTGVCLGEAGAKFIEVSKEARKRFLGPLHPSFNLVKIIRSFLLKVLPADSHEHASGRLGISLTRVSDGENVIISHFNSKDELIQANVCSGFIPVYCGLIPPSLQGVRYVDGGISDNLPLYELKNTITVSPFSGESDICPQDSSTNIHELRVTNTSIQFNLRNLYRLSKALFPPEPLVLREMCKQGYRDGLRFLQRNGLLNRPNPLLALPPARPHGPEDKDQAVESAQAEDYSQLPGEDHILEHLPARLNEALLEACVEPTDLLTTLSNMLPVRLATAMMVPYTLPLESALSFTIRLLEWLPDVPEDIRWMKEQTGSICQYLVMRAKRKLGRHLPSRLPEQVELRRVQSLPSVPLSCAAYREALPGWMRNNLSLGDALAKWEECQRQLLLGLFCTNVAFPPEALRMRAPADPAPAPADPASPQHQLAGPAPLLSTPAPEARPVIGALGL

[1] = Stability in human plasma assessed as compound remaining after 2 hrs; type: ADME, cell-free; details: read-out: Stability
[2] = Metabolic stability in mouse liver microsomes assessed as half life; type: ADME, Microsome
[3] = Aqueous solubility of compound at pH 7.4; type: physicochemical
[4] = Metabolic stability in human liver microsomes assessed as hepatic blood flow; type: ADME, Microsome; details: read-out: QH
[5] = Stability in mouse plasma assessed as compound remaining after 2 hrs; type: ADME, cell-free; details: read-out: Stability
[6] = Metabolic stability in mouse liver microsomes assessed as intrinsic clearance per mg of protein; type: ADME, Microsome; details: read-out: CLH
[7] = Metabolic stability in human liver microsomes assessed as half life; type: ADME, Microsome
[8] = Metabolic stability in mouse liver microsomes assessed as hepatic blood flow; type: ADME, Microsome; details: read-out: QH
[9] = Lipophilicity, logD of compound; type: physicochemical; details: octanol/water
[10] = Metabolic stability in human liver microsomes assessed as intrinsic clearance per mg of protein; type: ADME, Microsome; details: read-out: CLH
HepG2 = assay: Reduction in lipid droplets in human HepG2 cells by […] staining based confocal microscopic analysis; type: functional, cell-based
Hepatocyte = assay: Upregulation of ATGL protein level in mouse primary hepatocytes incubated for 24 hrs by Western blotting analysis; type: functional, cell-based; details: dose 10-500 nM

In the case of COCCn1cnc2ccc(NC(=O)Nc3cccc(C(C)=O)c3)c(C3=CCNCC3)c2c1=O, the Activity (COP1-AGTL (Homo sapiens)) is reported as “inactive”.

In the case of CC(=O)c1cccc(NC(=O)Nc2ccc3ncn(CCN4CCOCC4)c(=O)c3c2)c1, the Activity (COP1-AGTL (Homo sapiens)) is reported as “inactive”.

Molecule COCCn1cnc2ccc(NC(=O)Nc3cccc(C(=O)C(F)(F)F)c3)cc2c1=O has a remaining at 2 h [1] of 62%, a half-life [2] of 1.41 h and a solubility [3] of 9.6 µg/mL (≈ 22.1 µM). It also gave a hepatic extraction ratio [4] of 0.262, a remaining at 2 h [5] of 52.6% and a microsomal CLint [6] of 8.2 µL/min/mg. The Activity (COP1-AGTL (Homo sapiens)) was “inactive”, the half-life [7] was 1.5 h and the hepatic extraction ratio [8] was 0.183. The logD [9] was 4.25 and the microsomal CLint [10] was 7.7 µL/min/mg.

In the case of COCCn1cnc2ccc(NC(=O)N3CCCCC3)cc2c1=O, the Activity (COP1-AGTL (Homo sapiens)) is reported as “inactive”.

Molecule COCCn1c(=O)[nH]c2ccc(NC(=O)Nc3cccc(C(C)=O)c3)cc2c1=O has a remaining at 2 h [1] of 97.4%, a half-life [2] of 1.25 h and a solubility [3] of 0.8 µg/mL (≈ 2.02 µM). For the same molecule, the hepatic extraction ratio [4] was 0.076, the remaining at 2 h [5] was 68.4% and the microsomal CLint [6] was 11.4 µL/min/mg. For the same molecule, the Activity (COP1-AGTL (Homo sapiens)) was “Active”, the half-life [7] was 7.16 h and the hepatic extraction ratio [8] was 0.228. It also gave a logD [9] of 2.17 and a microsomal CLint [10] of 1.8 µL/min/mg.

With CC(=O)c1cccc(NC(=O)Nc2ccc3ncn(CCN4CCCCC4)c(=O)c3c2)c1 the Activity (COP1-AGTL (Homo sapiens)) was “inactive”.

In the case of COCCn1cnc2ccc(NC(=O)Nc3cccc(C(C)=O)c3)c(-c3ccc(OC)nc3)c2c1=O, the Activity (COP1-AGTL (Homo sapiens)) is reported as “inactive”.

In the case of COCCn1cnc2ccc(NC(=O)Nc3ccc(OC)cc3)cc2c1=O, the Activity (COP1-AGTL (Homo sapiens)) is reported as “Active”.

With COCCn1cnc2ccc(NC(=O)Nc3cccc(C(C)=O)c3)c(C3CCNCC3)c2c1=O the Activity (COP1-AGTL (Homo sapiens)) was “inactive”.

In the case of COCCn1cnc2ccc(NC(=O)Nc3cccc(C(C)O)c3)cc2c1=O (stereo unspecified), the Activity (COP1-AGTL (Homo sapiens)) is reported as “inactive”.

For COCCn1cnc2ccc(NC(=O)Nc3cccc(C(F)(F)F)c3)cc2c1=O, the Activity (COP1-AGTL (Homo sapiens)) was “inactive”.

COCCn1c(=O)c2cc(NC(=O)Nc3cccc(C(C)=O)c3)ccc2n(C(C)C)c1=O showed a remaining at 2 h [1] of 80.8%, a half-life [2] of 0.272 h and a solubility [3] of 2.8 µg/mL (≈ 6.39 µM). For the same molecule, the hepatic extraction ratio [4] was 0.403, the remaining at 2 h [5] was 90.7% and the microsomal CLint [6] was 42.6 µL/min/mg. The Activity (COP1-AGTL (Homo sapiens)) was “inactive”, the half-life [7] was 0.793 h and the hepatic extraction ratio [8] was 0.536. The logD [9] was 2.67 and the microsomal CLint [10] was 14.6 µL/min/mg.

For COCCn1cnc2ccc(NC(=O)Nc3ccccc3)cc2c1=O, the Activity (COP1-AGTL (Homo sapiens)) was “inactive”.

COCCn1cnc2ccc(NC(=O)Nc3cccc(OC)c3)cc2c1=O gave a remaining at 2 h [1] of 73.9%, a half-life [2] of 1.05 h and a solubility [3] of 21.5 µg/mL (≈ 58.4 µM). For the same molecule, the hepatic extraction ratio [4] was 0.184, the remaining at 2 h [5] was 84.5% and the microsomal CLint [6] was 11 µL/min/mg. For the same molecule, the Activity (COP1-AGTL (Homo sapiens)) was “Active”, the half-life [7] was 2.4 h and the hepatic extraction ratio [8] was 0.231. The logD [9] was 3.02, the Activity (HepG2) was “Active” and the Activity (Hepatocyte) was “Dose-Dependent Effect”. For the same molecule, the microsomal CLint [10] was 4.9 µL/min/mg.

In the case of COCCn1cnc2ccc(NC(=O)Nc3cccc(C(C)=O)c3)c(-c3ccccc3)c2c1=O, the Activity (COP1-AGTL (Homo sapiens)) is reported as “Active”.

With CCn1cnc2ccc(NC(=O)Nc3cccc(C(C)=O)c3)cc2c1=O the Activity (COP1-AGTL (Homo sapiens)) was “inactive”.

COCCn1cnc2ccc(NC(=O)Nc3cccc(C(O)C(F)(F)F)c3)cc2c1=O (stereo unspecified) gave a remaining at 2 h [1] of 74.6%, a half-life [2] of 0.367 h and a solubility [3] of 27 µg/mL (≈ 61.9 µM). The hepatic extraction ratio [4] was 0.415, the remaining at 2 h [5] was 118% and the microsomal CLint [6] was 31.7 µL/min/mg. For the same molecule, the Activity (COP1-AGTL (Homo sapiens)) was “inactive”, the half-life [7] was 0.753 h and the hepatic extraction ratio [8] was 0.462. The logD [9] was 2.54 and the microsomal CLint [10] was 15.3 µL/min/mg.

In the case of CC(=O)c1cccc(NC(=O)Nc2ccc3ncn(CCN(C)C)c(=O)c3c2)c1, the Activity (COP1-AGTL (Homo sapiens)) is reported as “inactive”.

COCCn1c(=O)c2cc(NC(=O)Nc3cccc(C(C)=O)c3)ccc2n(CCN2CCCC2)c1=O showed a remaining at 2 h [1] of 32.8%, a half-life [2] of 0.895 h and a solubility [3] of 124 µg/mL (≈ 252 µM). It also gave a hepatic extraction ratio [4] of 0.175, a remaining at 2 h [5] of 50.3% and a microsomal CLint [6] of 13 µL/min/mg. For the same molecule, the Activity (COP1-AGTL (Homo sapiens)) was “Active”, the half-life [7] was 2.56 h and the hepatic extraction ratio [8] was 0.26. The logD [9] was 2.58 and the microsomal CLint [10] was 4.6 µL/min/mg.

In the case of COCCn1cnc2ccc(NC(=O)Nc3ccc(F)cc3)cc2c1=O, the Activity (COP1-AGTL (Homo sapiens)) is reported as “inactive”.

For COCCn1c(=O)c2cc(NC(=O)Nc3cccc(C(C)=O)c3)ccc2n(C)c1=O, the Activity (COP1-AGTL (Homo sapiens)) was “Active”.

With COCCn1cnc2ccc(NC(=O)Nc3ccccc3OC)cc2c1=O the Activity (COP1-AGTL (Homo sapiens)) was “inactive”.

For COCCn1cnc2ccc(NC(=O)N(C)C)cc2c1=O, the Activity (COP1-AGTL (Homo sapiens)) was “inactive”.

With COCCn1cnc2ccc(NC(=O)Nc3cccc(C(C)=O)c3)c(-c3ccc(OC)cc3)c2c1=O the Activity (COP1-AGTL (Homo sapiens)) was “inactive”.

In the case of COCCn1cnc2ccc(NC(=O)NC3CCN(C)CC3)cc2c1=O, the Activity (COP1-AGTL (Homo sapiens)) is reported as “inactive”.

With COCCCn1cnc2ccc(NC(=O)Nc3cccc(C(C)=O)c3)cc2c1=O the Activity (COP1-AGTL (Homo sapiens)) was “Active”.

With CCc1cccc(NC(=O)Nc2ccc3ncn(CCOC)c(=O)c3c2)c1 the Activity (COP1-AGTL (Homo sapiens)) was “inactive”.

In the case of CC(C)[N+](C)(CCOC(=O)C1c2ccccc2Oc2ccccc21)C(C)C [PROPANTHELINE], the remaining at 2 h [5] is reported as 0%.

In the case of COCCn1cnc2ccc(NC(=O)Nc3ccccc3C(F)(F)F)cc2c1=O, the Activity (COP1-AGTL (Homo sapiens)) is reported as “inactive”.

In the case of CC(=O)c1cccc(NC(=O)Nc2ccc3nc[nH]c(=O)c3c2)c1, the Activity (COP1-AGTL (Homo sapiens)) is reported as “inactive”.

COCCn1cnc2ccc(NC(=O)Nc3cccc(C(C)=O)c3)c(-c3ccc(F)cc3)c2c1=O gave a remaining at 2 h [1] of 44.9%, a half-life [2] of 0.025 h and a solubility [3] of 31.9 µg/mL (≈ 67.2 µM). The microsomal CLint [6] was 456 µL/min/mg, the Activity (COP1-AGTL (Homo sapiens)) was “inactive” and the hepatic extraction ratio [8] was 0.925. The logD [9] was 1.9.

In the case of COCCn1cnc2ccc(NC(=O)Nc3ccc(C(F)(F)F)cc3)cc2c1=O, the Activity (COP1-AGTL (Homo sapiens)) is reported as “inactive”.

For COCCn1cnc2ccc(NC(=O)Nc3cccc(C(=O)c4ccccc4)c3)cc2c1=O, the Activity (COP1-AGTL (Homo sapiens)) was “inactive”.

In the case of COCCn1cnc2ccc(NC(=O)Nc3cccc(C(C)=O)c3)c(Br)c2c1=O, the remaining at 2 h [1] is reported as 10.3%, the half-life [2] is reported as 1.78 h and the solubility [3] is reported as 3.4 µg/mL (≈ 7.4 µM). The microsomal CLint [6] was 7.5 µL/min/mg, the Activity (COP1-AGTL (Homo sapiens)) was “Active” and the hepatic extraction ratio [8] was 0.167. For the same molecule, the logD [9] was 1.95.

In the case of CCCCn1cnc2ccc(NC(=O)Nc3cccc(C(C)=O)c3)cc2c1=O, the Activity (COP1-AGTL (Homo sapiens)) is reported as “inactive”.

With COCCn1cnc2ccc(NC(=O)Nc3cccc(C(C)=O)c3)c(-c3ccc(C(F)(F)F)cc3)c2c1=O the Activity (COP1-AGTL (Homo sapiens)) was “inactive”.

For CC(=O)c1cccc(NC(=O)Nc2ccc3ncn(CCCN4CCOCC4)c(=O)c3c2)c1, the Activity (COP1-AGTL (Homo sapiens)) was “inactive”.
